Assay results as given in patent US10526336B2, “Fused heteroaryl derivatives as orexin receptor antagonists” (Merck Sharp & Dohme Corp., priority 2014, dated 2020).

What follows are compounds tested against human orexin-2 receptor (Homo sapiens (Human), UniProt O43614) (assay: FLIPR Ca2+ Flux Assay, orexin-2 receptor antagonism in CHO cells). Conditions: CHO cells expressing the human orexin-2 receptor; agonist 70 pM Ala-6,12 orexin-A; read-out: hOX2 FLIPR IC50.
Format: cell-based
How it was run: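 CHO cells expressing rat OX1R or human OX2R, Fluo-4AM loaded, given compounds for 5 min, then challenged with 70 pM Ala-6,12 human orexin-A in HBSS/HEPES/BSA/probenecid, pH 7.4. FLIPR calcium fluorescence recorded 5 min; peak height versus agonist-alone gives IC50.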

Chain of human orexin-2 receptor (O43614 whole entry): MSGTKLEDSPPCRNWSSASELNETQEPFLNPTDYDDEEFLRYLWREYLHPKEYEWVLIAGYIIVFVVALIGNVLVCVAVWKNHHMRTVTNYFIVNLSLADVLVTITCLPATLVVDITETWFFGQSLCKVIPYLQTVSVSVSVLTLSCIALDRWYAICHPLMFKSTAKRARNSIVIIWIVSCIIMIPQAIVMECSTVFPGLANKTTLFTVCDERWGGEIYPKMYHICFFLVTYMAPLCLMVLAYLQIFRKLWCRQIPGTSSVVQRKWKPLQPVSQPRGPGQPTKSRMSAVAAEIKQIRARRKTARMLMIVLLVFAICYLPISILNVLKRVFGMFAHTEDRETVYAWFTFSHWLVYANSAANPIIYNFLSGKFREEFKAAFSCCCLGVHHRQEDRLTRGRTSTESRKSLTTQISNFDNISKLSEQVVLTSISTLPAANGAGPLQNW

SMILES | IC50 [nM]
C[C@@H]1CC[C@@H](Oc2nccn3cncc23)CN1C(=O)c1ccccc1-n1nccn1 [Example 102, (2-(2H-1,2,3-triazol-2-yl)phenyl)((2R,5R)-5-(imidazo[1,5-a]pyrazin-8-yloxy)-2-methylpiperidin-1-yl)methanone] | 14
Cc1ncc2c(O[C@@H]3CC[C@@H](C)N(C(=O)c4ccccc4-n4nccn4)C3)nccn12 [Example 103, (2-(2H-1,2,3-triazol-2-yl)phenyl)((2R,5R)-2-methyl-5-((3-methylimidazo[1,5-a]pyrazin-8-yl)oxy)piperidin-1-yl)methanone] | 23.5
Cc1nc2ccnc(O[C@@H]3CC[C@@H](C)N(C(=O)c4ccccc4-n4nccn4)C3)n2n1 [Example 104, (2-(2H-1,2,3-triazol-2-yl)phenyl)((2R,5R)-2-methyl-5-((2-methyl-[1,2,4]triazolo[1,5-c]pyrimidin-5-yl)oxy)piperidin-1-yl)methanone] | 60
Cc1nc2ccnc(N[C@@H]3CC[C@@H](C)N(C(=O)c4ccccc4-n4nccn4)C3)n2n1 [Example 105, (2-(2H-1,2,3-triazol-2-yl)phenyl)((2R,5R)-2-methyl-5-((2-methyl-[1,2,4]triazolo[1,5-c]pyrimidin-5-yl)amino)piperidin-1-yl)methanone] | 27.6
C[C@@H]1CC[C@@H](Oc2cccn3c(=O)n(C)nc23)CN1C(=O)c1ccccc1-n1nccn1 [Example 106, 8-(((3R,6R)-1-(2-(2H-1,2,3-triazol-2-yl)benzoyl)-6-methylpiperidin-3-yl)oxy)-2-methyl-[1,2,4]triazolo[4,3-a]pyridin-3(2H)-one] | 178
